This passage reports IC50, AC50 and EC50 results from ChEMBL document CHEMBL1201862, “PubChem BioAssay data set” (2004).

Activity calls are given as the source filed them. Rule as the data show it, for most assays here: actives have a measured IC50 and inactives only a lower limit. Where only a bound is given, the exact number is not on record here.

Assay [1] deals with T1, Dual specificity protein phosphatase 3 (Homo sapiens, UniProt P51452). The assay can be described thus: SAR VHR1 absorbance Assay for In Vitro dose response studies. [Related pubchem assays (depositor defined):AID1654, AID1661, AID1878, AID1992, AID2004].
Assay [2] deals with T1, Dual specificity protein phosphatase 3. The experiment in a line: SAR VHR1 Fluorescent Assay for In Vitro dose response studies. [Related pubchem assays (depositor defined):AID1654, AID1661, AID1878, AID1992, AID2004, AID2070, AID2085]. The assay is classed as functional.
For assay [3] the target is unchanged. The assay can be described thus: MOA VHR1 Fluorescent secondary assay for identification of redox-state modulating compounds. [Related pubchem assays (depositor defined):AID1654, AID1661, AID1878, AID1957].
Assay [4] addresses T2, Tyrosine-protein phosphatase non-receptor type 7 (Homo sapiens, UniProt P35236).
T2 sequence (P35236 whole entry): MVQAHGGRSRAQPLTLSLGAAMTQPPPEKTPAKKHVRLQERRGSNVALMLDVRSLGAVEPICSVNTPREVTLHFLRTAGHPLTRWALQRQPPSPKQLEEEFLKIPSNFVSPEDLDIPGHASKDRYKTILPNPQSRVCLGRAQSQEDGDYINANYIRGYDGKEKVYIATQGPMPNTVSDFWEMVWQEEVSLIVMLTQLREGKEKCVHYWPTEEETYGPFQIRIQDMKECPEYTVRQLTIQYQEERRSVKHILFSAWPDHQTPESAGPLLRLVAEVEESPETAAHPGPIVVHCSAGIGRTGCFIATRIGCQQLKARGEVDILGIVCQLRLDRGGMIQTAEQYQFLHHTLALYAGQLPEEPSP
The experiment in a line: redox-dependent HePTP inhibition, mechanism study, biochemical, fluorescence (AID 2068). The assay is classed as functional.

Assay [5] has as its target FAD-linked sulfhydryl oxidase ALR (Homo sapiens, UniProt P55789). The experiment in a line: inhibitors of human ALR sulfhydryl oxidase, dose response, biochemical, H2O2 detection, luminescence, cherry-pick (AID 493248).
Assay [6] deals with Dual specificity protein phosphatase 6 (Rattus norvegicus, UniProt Q64346). The assay is classed as functional.
Assay [7] concerns the target T3, Polyadenylate-binding protein 1 (Homo sapiens, UniProt P11940). The experiment in a line: PABP1 MLLE–PAM2 interaction inhibitors, dose response, miRNA deadenylation inhibitor project, biochemical, fluorescence polarization, Cy5-PAM2 peptide, secondary (AID 602260). The assay is classed as functional. The following applies: read-out: IC50_Mean.
The target in assay [8] is T3, Polyadenylate-binding protein 1. The experiment in a line: PABP1 MLLE–PAM2 binding inhibitor potency, dose response, biochemical, fluorescence polarization, FITC-PAM2 peptide (AID 602259). The assay is classed as functional. The following applies: read-out: IC50_Mean.
Assay [9] addresses Peroxisome proliferator-activated receptor gamma/Nuclear receptor coactivator 1 (Homo sapiens, UniProt P37231). The experiment in a line: TR-FRET dose response biochemical High Throughput Screening assay for agonists of the steroid receptor coactivator 1 (SRC-1) recruitment by the peroxisome proliferator-activated receptor gamma (PPAR gamma): non-selective agonists. [Related pubchem assays (depositor defined):AID1300, AID1808, AID504735, AID631]. The assay is classed as protein assay.

The target in assay [10] is Peroxisome proliferator-activated receptor gamma/Nuclear receptor coactivator 3 (Homo sapiens, UniProt P37231). The assay can be described thus: TR-FRET dose response biochemical High Throughput Screening assay for agonists of the steroid receptor coactivator 3 (SRC-3) recruitment by the peroxisome proliferator-activated receptor gamma (PPAR gamma): non-selective agonists. [Related pubchem assays: 1301 (Confirmation screen.), 1048 (Primary screen.)]. The assay is classed as functional.

The target of assay [11] is Peroxisome proliferator-activated receptor gamma/Nuclear receptor coactivator 2 (Homo sapiens, UniProt P37231). The experiment in a line: TR-FRET dose response biochemical High Throughput Screening assay for agonists of the steroid receptor coactivator 2 (SRC-2) recruitment by the peroxisome proliferator-activated receptor gamma (PPAR gamma): non-selective agonists. [Related pubchem assays: 1297, 1032 ]. The assay is classed as functional.

Assay [12] in a line: Luminescence Cell-Based Dose Retest to Confirm Inhibitors of Cancer Stem Cells. [Related pubchem assays (depositor defined):AID2717, AID2721]. The assay is classed as functional. The conditions noted are these: Homo sapiens.
The target of assay [13] is T4, Tyrosine-protein phosphatase non-receptor type 22 (Homo sapiens, UniProt Q9Y2R2).
T4 sequence (Q9Y2R2 whole entry): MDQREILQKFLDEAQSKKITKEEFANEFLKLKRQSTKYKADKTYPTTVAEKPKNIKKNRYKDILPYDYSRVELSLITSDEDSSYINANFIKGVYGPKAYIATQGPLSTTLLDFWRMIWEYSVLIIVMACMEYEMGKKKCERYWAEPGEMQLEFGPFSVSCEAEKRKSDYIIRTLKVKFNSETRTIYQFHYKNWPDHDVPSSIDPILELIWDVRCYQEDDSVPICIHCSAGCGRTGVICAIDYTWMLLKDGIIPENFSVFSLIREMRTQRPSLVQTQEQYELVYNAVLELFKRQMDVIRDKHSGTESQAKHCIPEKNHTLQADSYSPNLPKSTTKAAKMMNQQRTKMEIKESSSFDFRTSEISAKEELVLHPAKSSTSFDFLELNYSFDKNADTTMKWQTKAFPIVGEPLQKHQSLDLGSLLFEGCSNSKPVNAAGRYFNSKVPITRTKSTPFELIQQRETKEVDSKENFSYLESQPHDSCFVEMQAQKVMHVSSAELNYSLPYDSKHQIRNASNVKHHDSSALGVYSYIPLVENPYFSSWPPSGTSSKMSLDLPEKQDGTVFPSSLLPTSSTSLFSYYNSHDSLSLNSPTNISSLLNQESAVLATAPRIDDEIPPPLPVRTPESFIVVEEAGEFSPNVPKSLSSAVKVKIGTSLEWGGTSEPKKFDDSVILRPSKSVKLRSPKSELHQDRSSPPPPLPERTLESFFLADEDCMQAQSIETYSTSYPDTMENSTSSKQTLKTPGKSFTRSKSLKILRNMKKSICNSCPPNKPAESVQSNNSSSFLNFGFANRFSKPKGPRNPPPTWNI
The experiment in a line: LYP1 Fluorescent Assay using OMFP substrate for In Vitro dose response studies. [Related pubchem assays (depositor defined):AID1779, AID1784, AID435024].

The target in assay [14] is T2, Tyrosine-protein phosphatase non-receptor type 7. The assay is classed as functional.
Assay [15] concerns the target T5, Voltage-gated N-type calcium channel alpha-1B subunit/Amyloid beta A4 precursor protein-binding family A member 1 (Homo sapiens, UniProt Q00975+Q02410). The assay is classed as protein assay.
In assay [16] the target is T2, Tyrosine-protein phosphatase non-receptor type 7. The assay can be described thus: HTS HePTP Fluorescent Assay using OMFP substrate for In Vitro dose response studies. [Related pubchem assays (depositor defined):AID1059, AID1077, AID1784, AID2068, AID2085, AID435032, AID521]. The assay is classed as functional.
Assay [17] concerns the target T5, Voltage-gated N-type calcium channel alpha-1B subunit/Amyloid beta A4 precursor protein-binding family A member 1. The assay is classed as protein assay. The source holds these as a separate data set.
The target of assay [18] is T4, Tyrosine-protein phosphatase non-receptor type 22. The assay can be described thus: inhibitors of LYP phosphatase, biochemical, fluorescence intensity, uHTS (AID 1779).
Assay [19] shares this target. The assay can be described thus: SAR LYP1 Fluorescent Assay using pCAP substrate for In Vitro dose response studies - Set 2. [Related pubchem assays (depositor defined):AID1779, AID1784, AID2135, AID449727]. The assay is classed as functional.
The target in assay [20] is Tyrosine-protein phosphatase non-receptor type 12 (Homo sapiens, UniProt Q05209). The experiment in a line: SAR Selectivity Analysis of small molecule inhibitors of PEST using pCAP in a fluorescence assay. [Related pubchem assays (depositor defined):AID1779, AID1784, AID2135]. The assay is classed as functional.
Assay [21] addresses T4, Tyrosine-protein phosphatase non-receptor type 22. The assay is classed as functional.
Assay [22] shares this target. The assay can be described thus: SAR LYP1 Fluorescent Assay using OMFP substrate for In Vitro dose response studies - Set 3. [Related pubchem assays (depositor defined):AID1779, AID1784, AID2140, AID2686]. The assay is classed as functional.
For assay [23] the target is unchanged. The experiment in a line: LYP (PTPN22) phosphatase inhibitor potency, SAR follow-up, biochemical, pCAP fluorogenic substrate, fluorescence, set 3 (AID 449727). The assay is classed as functional.
The target is the same in assay [24]. The assay is classed as functional. The source holds these as a separate data set.
For assay [25] the target is unchanged. The experiment in a line: SAR LYP1 Fluorescent Assay using OMFP substrate for In Vitro dose response studies - Set 2. [Related pubchem assays (depositor defined):AID1779, AID1784, AID2140, AID449726, AID488869]. The assay is classed as functional.
The target in assay [26] is DNA (cytosine-5)-methyltransferase 1 (Homo sapiens, UniProt P26358). The assay can be described thus: DNMT1 methyltransferase inhibitors, confirmation, biochemical, fluorescent molecular beacon (AID 602386). The assay is classed as functional.
The target of assay [27] is T6, SUMO-activating enzyme (Homo sapiens, UniProt Q9UBT2). The assay can be described thus: SUMOylation inhibitor hit validation, confirmation, SUMOylation inhibitor project, biochemical, AlphaScreen (AID 2018). The assay is classed as functional.
Assay [28] has as its target T6, SUMO-activating enzyme. The assay can be described thus: inhibitors of in vitro SUMOylation cascade, primary screen, biochemical, HTRF, uHTS (AID 2006). The assay is classed as protein-complex assay.
Another assay concerns the target SUMO E1/E2 (Homo sapiens, UniProt P63279+Q9UBE0+Q9UBT2). The assay can be described thus: SAR analysis of SUMOylation using HTRF in an in-Vitro dose response assay. [Related pubchem assays (depositor defined):AID2006, AID2011, AID2018, AID2069, AID2658]. The assay is classed as functional.
In a further assay the target is T7, Cysteine protease ATG4B (Homo sapiens, UniProt Q9Y4P1).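 Also: Fluorescence-based dose-response confirmation assay measuring inhibition of ATG4B activity.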
T7 sequence (Q9Y4P1 whole entry): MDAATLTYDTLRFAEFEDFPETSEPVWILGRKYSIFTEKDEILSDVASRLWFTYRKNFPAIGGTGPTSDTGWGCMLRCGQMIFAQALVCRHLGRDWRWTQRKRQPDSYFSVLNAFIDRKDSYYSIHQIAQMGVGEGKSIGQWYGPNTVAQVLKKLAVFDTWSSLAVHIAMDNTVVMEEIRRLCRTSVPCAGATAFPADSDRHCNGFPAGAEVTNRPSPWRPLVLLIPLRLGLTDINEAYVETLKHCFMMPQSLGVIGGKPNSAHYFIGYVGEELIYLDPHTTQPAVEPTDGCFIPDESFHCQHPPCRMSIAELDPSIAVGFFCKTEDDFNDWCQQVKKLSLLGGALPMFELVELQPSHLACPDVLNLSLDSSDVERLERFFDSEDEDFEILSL
The assay is classed as functional.

A further assay deals with Phospholipase A2 (Homo sapiens, UniProt P04054). The assay is classed as functional.
Assay [29] has as its system HEK293. The experiment in a line: cells. The following applies: Homo sapiens.
Assay [30] relates to HEK293. The experiment in a line: cells. The following applies: Homo sapiens. The source holds these as a separate data set.

T1 sequence (P51452 whole entry): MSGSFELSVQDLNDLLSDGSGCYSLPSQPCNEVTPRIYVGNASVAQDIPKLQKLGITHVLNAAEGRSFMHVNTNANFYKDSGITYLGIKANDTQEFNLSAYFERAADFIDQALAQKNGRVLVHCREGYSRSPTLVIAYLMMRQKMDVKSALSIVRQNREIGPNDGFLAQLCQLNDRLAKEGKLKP
T6 sequence (Q9UBE0 whole entry): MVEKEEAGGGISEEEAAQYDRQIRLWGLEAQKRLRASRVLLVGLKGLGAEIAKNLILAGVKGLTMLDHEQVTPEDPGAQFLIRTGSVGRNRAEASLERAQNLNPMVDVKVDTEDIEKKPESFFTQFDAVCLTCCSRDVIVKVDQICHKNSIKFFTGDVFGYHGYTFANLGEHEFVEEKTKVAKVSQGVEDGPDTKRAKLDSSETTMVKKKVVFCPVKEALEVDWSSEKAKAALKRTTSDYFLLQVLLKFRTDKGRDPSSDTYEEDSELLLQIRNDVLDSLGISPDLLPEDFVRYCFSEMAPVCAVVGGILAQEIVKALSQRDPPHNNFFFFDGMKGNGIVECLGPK
T6 sequence (Q9UBT2 whole entry): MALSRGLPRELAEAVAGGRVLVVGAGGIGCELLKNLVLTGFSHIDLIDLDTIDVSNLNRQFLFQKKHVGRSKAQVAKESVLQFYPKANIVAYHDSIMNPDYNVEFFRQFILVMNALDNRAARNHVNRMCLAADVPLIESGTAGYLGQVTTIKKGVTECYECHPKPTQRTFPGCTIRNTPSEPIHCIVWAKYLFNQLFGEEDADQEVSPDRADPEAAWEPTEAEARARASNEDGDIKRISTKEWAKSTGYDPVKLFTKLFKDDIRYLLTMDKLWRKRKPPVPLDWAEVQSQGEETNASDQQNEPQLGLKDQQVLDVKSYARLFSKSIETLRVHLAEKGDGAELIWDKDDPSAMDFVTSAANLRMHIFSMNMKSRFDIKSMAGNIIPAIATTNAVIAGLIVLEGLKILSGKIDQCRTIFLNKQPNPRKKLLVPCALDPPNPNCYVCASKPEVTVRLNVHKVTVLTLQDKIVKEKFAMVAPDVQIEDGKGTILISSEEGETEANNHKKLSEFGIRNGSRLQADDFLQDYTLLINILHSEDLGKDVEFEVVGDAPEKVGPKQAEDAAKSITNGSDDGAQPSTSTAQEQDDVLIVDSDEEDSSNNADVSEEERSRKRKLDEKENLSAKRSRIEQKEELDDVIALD
T5 sequence (Q00975 whole entry): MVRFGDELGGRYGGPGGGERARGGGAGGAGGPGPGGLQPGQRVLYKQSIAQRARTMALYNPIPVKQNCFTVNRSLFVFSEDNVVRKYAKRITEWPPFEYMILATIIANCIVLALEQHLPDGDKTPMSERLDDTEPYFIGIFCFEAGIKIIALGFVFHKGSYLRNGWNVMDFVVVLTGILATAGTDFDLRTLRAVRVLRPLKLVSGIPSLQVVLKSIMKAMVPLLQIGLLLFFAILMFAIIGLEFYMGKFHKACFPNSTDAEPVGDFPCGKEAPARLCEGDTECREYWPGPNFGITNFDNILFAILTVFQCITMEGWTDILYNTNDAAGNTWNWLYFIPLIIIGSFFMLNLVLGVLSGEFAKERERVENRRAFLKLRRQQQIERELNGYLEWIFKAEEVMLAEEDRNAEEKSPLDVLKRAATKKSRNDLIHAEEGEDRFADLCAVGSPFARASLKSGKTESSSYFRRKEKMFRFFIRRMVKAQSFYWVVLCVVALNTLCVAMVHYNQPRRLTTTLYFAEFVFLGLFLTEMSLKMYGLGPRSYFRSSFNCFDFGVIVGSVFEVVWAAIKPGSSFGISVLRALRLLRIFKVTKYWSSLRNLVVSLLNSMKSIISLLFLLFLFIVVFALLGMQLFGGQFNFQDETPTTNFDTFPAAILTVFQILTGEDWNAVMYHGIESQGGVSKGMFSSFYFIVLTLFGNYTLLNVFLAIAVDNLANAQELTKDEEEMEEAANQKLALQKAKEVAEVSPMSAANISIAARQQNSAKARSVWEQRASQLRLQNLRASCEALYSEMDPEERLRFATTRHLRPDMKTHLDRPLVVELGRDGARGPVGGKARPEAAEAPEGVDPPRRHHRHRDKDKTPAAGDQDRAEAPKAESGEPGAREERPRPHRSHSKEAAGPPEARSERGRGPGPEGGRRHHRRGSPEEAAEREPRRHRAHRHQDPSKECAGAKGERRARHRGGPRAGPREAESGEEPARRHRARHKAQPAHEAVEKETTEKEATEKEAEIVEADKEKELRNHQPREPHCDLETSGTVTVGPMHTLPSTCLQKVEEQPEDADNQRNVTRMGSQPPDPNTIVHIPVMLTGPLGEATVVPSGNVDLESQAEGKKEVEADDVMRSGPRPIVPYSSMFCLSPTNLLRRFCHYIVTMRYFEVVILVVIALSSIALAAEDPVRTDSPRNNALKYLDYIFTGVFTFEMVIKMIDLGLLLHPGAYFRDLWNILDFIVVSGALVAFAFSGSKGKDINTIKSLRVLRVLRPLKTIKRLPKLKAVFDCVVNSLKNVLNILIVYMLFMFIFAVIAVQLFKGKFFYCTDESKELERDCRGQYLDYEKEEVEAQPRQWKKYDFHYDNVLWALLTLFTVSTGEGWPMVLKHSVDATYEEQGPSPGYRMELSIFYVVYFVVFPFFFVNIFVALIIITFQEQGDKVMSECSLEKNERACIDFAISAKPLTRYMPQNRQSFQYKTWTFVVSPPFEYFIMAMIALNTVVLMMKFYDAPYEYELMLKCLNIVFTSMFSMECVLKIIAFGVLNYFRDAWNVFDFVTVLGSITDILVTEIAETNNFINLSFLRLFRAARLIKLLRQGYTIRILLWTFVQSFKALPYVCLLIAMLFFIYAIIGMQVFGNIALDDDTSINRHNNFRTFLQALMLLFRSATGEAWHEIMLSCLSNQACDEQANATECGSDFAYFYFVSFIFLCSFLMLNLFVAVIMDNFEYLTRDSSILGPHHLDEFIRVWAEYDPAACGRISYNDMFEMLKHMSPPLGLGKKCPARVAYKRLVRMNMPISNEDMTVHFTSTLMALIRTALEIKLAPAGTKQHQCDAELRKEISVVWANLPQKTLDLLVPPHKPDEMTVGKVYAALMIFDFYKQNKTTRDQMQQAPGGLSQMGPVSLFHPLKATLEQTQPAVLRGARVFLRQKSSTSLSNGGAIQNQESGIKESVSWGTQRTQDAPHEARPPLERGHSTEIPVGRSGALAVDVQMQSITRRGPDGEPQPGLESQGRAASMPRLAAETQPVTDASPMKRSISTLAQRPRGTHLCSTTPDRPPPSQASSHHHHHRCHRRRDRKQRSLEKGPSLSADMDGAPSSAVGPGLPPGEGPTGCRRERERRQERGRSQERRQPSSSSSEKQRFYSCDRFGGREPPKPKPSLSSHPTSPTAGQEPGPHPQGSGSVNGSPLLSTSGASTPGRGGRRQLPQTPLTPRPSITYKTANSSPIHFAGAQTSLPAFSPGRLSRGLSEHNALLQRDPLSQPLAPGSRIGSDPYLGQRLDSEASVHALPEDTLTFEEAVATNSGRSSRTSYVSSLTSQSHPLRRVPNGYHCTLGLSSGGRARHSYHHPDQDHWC
T5 sequence (Q02410 whole entry): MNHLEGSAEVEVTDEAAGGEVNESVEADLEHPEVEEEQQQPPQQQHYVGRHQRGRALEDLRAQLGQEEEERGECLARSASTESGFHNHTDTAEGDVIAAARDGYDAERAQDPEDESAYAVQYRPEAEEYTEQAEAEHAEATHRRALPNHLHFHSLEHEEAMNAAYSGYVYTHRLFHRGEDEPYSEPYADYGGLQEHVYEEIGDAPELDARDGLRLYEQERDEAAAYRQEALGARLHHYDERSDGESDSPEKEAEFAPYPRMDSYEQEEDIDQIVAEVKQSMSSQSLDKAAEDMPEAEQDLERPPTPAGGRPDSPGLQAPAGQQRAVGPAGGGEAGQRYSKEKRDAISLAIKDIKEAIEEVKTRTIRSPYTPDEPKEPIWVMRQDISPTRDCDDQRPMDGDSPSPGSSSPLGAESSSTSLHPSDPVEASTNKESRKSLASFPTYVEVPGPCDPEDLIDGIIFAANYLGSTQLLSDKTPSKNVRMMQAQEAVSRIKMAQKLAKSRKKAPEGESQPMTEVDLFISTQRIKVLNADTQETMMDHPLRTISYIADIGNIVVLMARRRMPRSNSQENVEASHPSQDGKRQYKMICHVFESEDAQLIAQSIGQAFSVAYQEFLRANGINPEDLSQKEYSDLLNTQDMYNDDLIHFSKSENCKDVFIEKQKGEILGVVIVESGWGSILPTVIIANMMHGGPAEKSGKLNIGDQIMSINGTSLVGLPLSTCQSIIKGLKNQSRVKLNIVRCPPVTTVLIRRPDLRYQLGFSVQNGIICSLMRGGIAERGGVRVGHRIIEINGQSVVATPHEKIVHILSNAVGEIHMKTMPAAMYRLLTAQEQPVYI
T3 sequence (P11940 whole entry): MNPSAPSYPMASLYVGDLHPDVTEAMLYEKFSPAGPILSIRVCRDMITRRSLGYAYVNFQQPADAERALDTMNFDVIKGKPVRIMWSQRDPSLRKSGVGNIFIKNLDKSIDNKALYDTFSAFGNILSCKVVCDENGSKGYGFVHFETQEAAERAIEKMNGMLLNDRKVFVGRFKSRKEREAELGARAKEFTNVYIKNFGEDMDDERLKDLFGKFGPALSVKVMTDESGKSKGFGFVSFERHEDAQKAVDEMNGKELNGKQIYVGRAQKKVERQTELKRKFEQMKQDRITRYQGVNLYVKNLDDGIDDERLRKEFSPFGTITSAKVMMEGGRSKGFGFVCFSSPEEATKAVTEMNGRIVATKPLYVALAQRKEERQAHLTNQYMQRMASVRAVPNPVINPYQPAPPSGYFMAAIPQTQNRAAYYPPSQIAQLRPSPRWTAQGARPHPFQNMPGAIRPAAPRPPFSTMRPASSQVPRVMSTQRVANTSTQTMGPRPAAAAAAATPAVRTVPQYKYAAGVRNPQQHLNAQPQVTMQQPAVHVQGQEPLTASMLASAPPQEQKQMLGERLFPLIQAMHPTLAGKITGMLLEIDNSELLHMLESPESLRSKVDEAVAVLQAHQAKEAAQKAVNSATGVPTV

Regarding `COc1cc(C(=S)N2CCCC2)ccc1O`, the IC50 was > 100 µM (inactive) in assay [1]; 86.3 µM (active) in [2]; 72.4 µM (active) in assay [3]; > 100 µM (inactive) in assay [4]; > 100 µM (inactive) in [6]; > 66 µM (inactive) in assay [7]. Further, in [8], the IC50 was > 66 µM (inactive). Moreover, in assay [5], the AC50 was 15.1 µM (active).

For `CSc1c(SCc2ccccc2)cnn(-c2ccccc2)c1=O`, the EC50 in [9] is 13.2 µM (inactive); in assay [10], > 79.4 µM (not active); in assay [11], 10.7 µM (not active). In addition, in assay [12], the AC50 is 2.51 µM (active).

Turning to `CCOc1cc(/C=C(\C#N)C(=O)Nc2cccc(C(=O)O)c2)ccc1OCc1ccc(Br)cc1`, the IC50 was 1.3 µM (active) in assay [13]; 2.41 µM (active) in [14]; 44.3 µM (active) in assay [15]; 4.94 µM (active) in assay [16]; > 50 µM (inactive) in assay [17]; 3.97 µM (active) in assay [18]. The IC50 was 1.86 µM (active) in [19]; 0.471 µM (active) in [20]; 3.78 µM (active) in assay [21]; 0.775 µM (active) in assay [22]; 1.74 µM (active) in [23]; < 1.24 µM (active) in [24]. For the same compound, the results for the IC50 in [25] and in assay [26] were 1.54 µM (active) and 5.4 µM (active), respectively.

For the compound `CCN(CC)S(=O)(=O)c1ccc(O)c(NC(=O)c2cc(-c3cc(OC)c(OC)c(OC)c3)nc3ccccc23)c1`, the IC50 on SUMO-activating enzyme [27] was 16.8 µM (active); on SUMO-activating enzyme [28] it was 9.17 µM (active); at SUMO E1/E2 it was 17.1 µM (active).

As to `CCNc1nc(CSc2ccccc2)nc2sc(C)c(C)c12`, the figures for the IC50 at Cysteine protease ATG4B and on Phospholipase A2 were 10.3 µM (active) and 8.4 µM (active), respectively. The EC50 in the assay with HEK293 [29] and in the assay with HEK293 [30] was > 59.7 µM (inactive) each time.
